Measurements: patent US20250032425A1, “FIRST IN CLASS USE OF ESTROGEN RECEPTOR BETA AGONISTS IN TREATING ANGELMAN SYNDROME AND RELEVANT AUTISM SPECTRUM DISORDERS” (BROWN UNIVERSITY, priority 2023, published 2025)
“Also recorded” adds a separate entry of the source.

Tests used:
UBE3A-deficient iOPCs = assay: Ki67 (and PCNA) immunoblotting in UBE3A-knockdown iOPCs: compound screen and rescue of proliferation; format: cell-based, human; conditions: for EC50: Homo sapiens, iOPCs treated with siUBE3A, Ki67 immunoblotting normalized to siNC plus vehicle, read-out: EC50 for rescue of Ki67 expression; for Ki67 expression (FIG. 19G) / PCNA expression (FIG. 19G): siUBE3A cells, normalized to GAPDH
Protocol: Given the scarcity of knowledge regarding UBE3A function in oligodendrocyte biology, a comprehensive exploration of various cellular functions was performed, leveraging the high-throughput capabilities of the iPSC-based methodology (e.g., as described herein). We selected over 45 compounds with known targeted cellular actions (Table 1). These were chosen based on their documented effects on UBE3A, their ability to promote oligodendrocyte development and myelination, or their protective 10 roles in neural tissue. UBE3A expression was modulated using siRNA, achieving a controlled reduction that decreased OPC proliferation by approximately 50%, as evidenced by Ki67 protein levels.
iPSC Culturing and Generation of Induced Human Brain Cells Including Oligodendroglia, Neurons (IN), Astrocytes (iAs) and Microglia (iMG) The generation of iPSC-derived human oligodendrocyte precursor cells (iOPCs) was carried out according to a previously published protocol by Vulakh and Yang et al., 2023 (Characterizing the Neuron-Glial Interactions by the Co-cultures of Human iPSC-Derived Oligodendroglia and Neurons. Methods Mol. Biol. 2683), which itself was a modification of an earlier protocol by Assetta et al., 2020 (Generation of Human Neurons and Oligodendrocytes from Pluripotent Stem Cells for Modeling Neuron-Oligodendrocyte Interactions. J Vis Exp.). The process began with the control iPSCs, which is a well-characterized control reference line acquired from the NIH-funded iPSC Neurodegenerative Disease Initiative (INDI, (Ramos, D. M., Skarnes, W. C., Singleton, A. B., Cookson, M. R., and Ward, M. E. (2021). Tackling neurodegenerative diseases with genomic engineering: A new stem cell initiative from the NIH. Neuron 109, 1080-1083. 10.1016/j.neuron.2021.03.022)), distributed by the Jackson Laboratory. These iPSCs were maintained in mTeSR plus medium (StemCell Technologies, #05825) and expanded in Stem Flex medium (Fisher Scientific. #A3349401) for the induction of neural progenitor cells (INPC). The iNPCs were derived by treating iPSCs with a commercial SMAD inhibitor medium (StemCell Technologies, #08582) for 7 days (Week 1). Subsequently, NPCs were further induced to become OPCs by a 7-day incubation (Week 2) with a chemically-defined OPC medium: DMEM/F12 medium (Thermo Fisher, #11320033) supplemented by 10 ng/ml PDGF-AA (R&D Systems, #221-AA-025), 1 μM SAG (Tocris, #4366), […] N-Acetyl-Cysteine (Millipore Sigma, #A9165-5G), 20 ng/mL bFGF (R&D Systems, #233-FB-025/CF), 1% N2 supplement (Thermo Fisher, #17502048), and 1% B27 supplement (Thermo Fisher, #17504044). […] The additional incubation with OL medium for 7-14 days (Week 4-5) yielded mature, myelinating OLs.
The siRNAs targeting UBE3A (Thermo Fisher, #4390815 and #4390816), estrogen receptors (Thermo Scientific #145909 for ESRβ, #145539 for ESRα, and #4390824 for GPER), and negative control (Thermo Scientific, #AM4615) were obtained commercially. The 10-20 nM final concentration was used with Lipofectamine RNAiMAX transfection reagent (Thermo Scientific #13778075) and incubated for at least 48 hours before the treatments of therapeutic compounds or other reagents.
Cells were collected by fast spin down in centrifuge tubes before lysis in RIPA buffer (ThermoFisher, #89901) supplemented with proteinase inhibitor cocktail (Sigma-Aldrich, #5892791001) on ice. Lysates were then spun down at 15000 rpm for 10 mins, the supernatant was collected and mixed with 4× Laemmle sample buffer (Bio-Rad, #1610747) and cooked 10 mins before SDS-PAGE and transferred with Bio-Rad fast transfer system, the membranes were blocked for one hour in 1× Tris Buffered Saline (TBS) with 1% Casein buffer (Bio-Rad, #1610782) and incubated with primary antibodies overnight at 4 degrees. […]

[1] = test system: iOPCs expressing Cas9 and a sgRNA targeting UBE3A; assay: EdU incorporation in iOPCs with CRISPR/Cas9 UBE3A depletion (Lenti-sgUBE3A #1-3); format: cell-based, human; conditions: 10 μM; any of the sgRNAs
Protocol: The sgRNAs targeting UBE3A, and negative control were obtained from Applied Biological Materials Inc. Targeting sgRNA sequences against UBE3A are: sgRNA1, […]; sgRNA2, […]; sgRNA3, […]. These sgRNAs were integrated into the backbone of the negative control pLenti-U6-sgRNA-SFFV-Cas9-2A-Puro. All constructs were packaged into lentiviruses and concentrated by Lenti-X Concentrator (Takara Bio #631231). In each experiment, 5-10 μl of concentrated virus was administered into ˜70% confluent iOPCs cultures in 6-well plates. One day post-lentiviral transduction, iOPC cultures were treated with approximately 5 μg/ml Puromycin to isolate those iOPCs which are expressing Cas9/sgRNAs. Following a day of selection, the iOPCs were then seeded on gelatin-coated coverslips placed in 24-well plates at a density of 100,000 cells per well. After another day allowed for cell stabilization, treatment with either the vehicle control (DMSO), AC-186, DPN, or LY500307 commenced at a standard concentration of 10 μM. A final 24-hour period after this treatment saw the cells exposed to […] for three hours, preparing them for subsequent immunofluorescence staining.
The EdU labeling kit from ThermoFisher Scientific (#C10637) was used to trace cell proliferation by incubating iOPCs with 2 μM EdU for three hours before fixation. Following EdU incorporation, cells were fixed in 4% paraformaldehyde, blocked with normal serum, and stained with primary antibodies, Rabbit anti-Ki67 and Mouse anti-UBE3A. These steps were conducted according to the manual of the labeling kit and also detailed immunofluorescence staining protocols described below, to ensure specific detection of the proliferation marker Ki67 and the ubiquitin-protein ligase UBE3A in the cells for subsequent imaging analysis.

Compound	restoration of Ki67 expression in compound screen (UBE3A-deficient iOPCs; 10 μM, 24 hours, Ki67 immunoblotting normalized to siNC=1.0)	EC50 (UBE3A-deficient iOPCs; 24 hours)	Ki67 expression (FIG. 19G) (UBE3A-deficient iOPCs; 10 μM, 24 hours)	PCNA expression (FIG. 19G) (UBE3A-deficient iOPCs; 10 μM, 24 hours)	number of EdU+ cells [1]	impact of UBE3A loss on OPC proliferation (FIG. 18F, 19G) (UBE3A-deficient iOPCs; ERβ activators of different structural classes)
Oc1ccc(C2(c3ccccc3F)CCC(F)(F)CC2)cc1 [AC-186]	restored; also recorded: effectively normalized proliferation levels; also recorded: Statistically significant; also recorded: capable of restoring Ki67 expression	~16 nM	increased expression	increased expression	increased the number of EdU+ cells	
N#CC(Cc1ccc(O)cc1)c1ccc(O)cc1 (stereo not shown) [DPN, diarylpropionitrile, reference compound]		~19 nM	increased expression	increased expression	increased the number of EdU+ cells	similarly mitigated the impact of UBE3A loss on OPC proliferation
